Molecular target: T1, human CYP11B2 (Homo sapiens, UniProt P19099)
T1 construct: expressed in transfected cells
T1 sequence (P19099 25-503): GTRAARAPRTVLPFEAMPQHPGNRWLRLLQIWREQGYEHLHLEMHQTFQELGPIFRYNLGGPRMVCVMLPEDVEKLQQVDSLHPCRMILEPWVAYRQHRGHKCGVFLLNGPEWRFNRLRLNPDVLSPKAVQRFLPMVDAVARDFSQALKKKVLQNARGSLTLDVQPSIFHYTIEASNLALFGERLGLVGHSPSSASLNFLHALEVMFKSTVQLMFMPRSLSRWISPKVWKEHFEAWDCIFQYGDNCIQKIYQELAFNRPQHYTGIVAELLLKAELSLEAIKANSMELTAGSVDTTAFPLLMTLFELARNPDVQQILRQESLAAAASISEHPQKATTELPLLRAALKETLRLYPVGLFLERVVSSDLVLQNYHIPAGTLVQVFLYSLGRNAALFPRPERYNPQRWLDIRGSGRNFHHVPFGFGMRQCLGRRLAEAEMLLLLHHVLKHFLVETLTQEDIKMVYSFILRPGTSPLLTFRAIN
Test: G-402 cellular enzyme assay, human CYP11B2 (aldosterone release, HTRF)
Format: cell-based
Settings: G-402 cells, 1 μM Deoxycorticosterone
Source text: Herein we identified the use of the G-402 cell line as a host cell to ectopically express (transiently or stably) enzymes of the CYP11 family. Specifically we developed stable G-402 cells expressing ectopically human CYP11B1, human CYP11B2, human CYP11A1, cynmolgus CYP11B1 or cynomolgus CYP11B2 enzyme activity. Importantly the identified cell line G-402 expresses co-factors (adrenodoxin and adrenodoxin reductase) important for the activity of the CYP11 family and no relevant enzyme activity of the CYP11 family (in comparison to H295R cells) was detected in these cells. Therefore the G-402 cell line is uniquely suited as a host cell for the ectopic expression of enzymes from the CYP11 family.
G-402 cells can be obtained from ATCC(CRL-1440) and were originally derived from a renal leiomyoblastoma.
The expression plasmids contain the ORF for either human/cyno CYP11B1 or CYP11B2 under the control of a suitable promoter (CMV-promoter) and a suitable resistance marker (neomycin). Using standard techniques the expression plasmid is transfected into G-402 cells and these cells are then selected for expressing the given resistance markers. Individual cell-clones are then selected and assessed for displaying the desired enzymatic activity using 11-Deoxycorticosterone (Cyp11B2) or 11-Deoxycortisol (Cyp11B1) as a substrate.
G-402 cells expressing CYP11 constructs were established as described above and maintained in McCoy's 5a Medium Modified, ATCC Catalog No. 30-2007 containing 10% FCS and 400 μg/ml G418 (Geneticin) at 37° C. under an atmosphere of 5% CO2/95% air.
Cellular enzyme assays were performed in DMEM/F12 medium containing 2.5% charcoal treated FCS and appropriate concentration of substrate (0.3-10 uM 11-Deoxycorticosterone, 11-Deoxycortisol or Corticosterone). For assaying enzymatic activity, cells were plated onto 96 well plates and incubated for 16 h. An aliquot of the supernatant is then transferred and analyzed for the concentration of the expected product (Aldosterone for CYP11B2; Cortisol for CYP11B1). The concentrations of these steroids can be determined using HTRF assays from CisBio analyzing either Aldosterone or Cortisol.
Inhibition of the release of produced steroids can be used as a measure of the respective enzyme inhibition by test compounds added during the cellular enzyme assay. The dose dependent inhibition of enzymatic activity by a compound is calculated by means of plotting added inhibitor concentrations (x-axes) vs. measured steroid/product level (y-axes). The inhibition is then calculated by fitting the following 4-parameter sigmoidal function (Morgan-Mercer-Flodin (MMF) model) to the raw data points using the least squares method:
[formula] wherein, A is the maximum y value, B is the EC50 factor determined using XLFit, C is the minimum y value and D is the slope value.
EC50 values for compounds claimed herein were tested with the G402-based assay system described. Cyp11B2 enzyme activity was tested in presence of 1 μM Deoxycorticosterone and variable amounts of inhibitors; Cyp11B1 enzyme activity was tested in presence of 1 μM Deoxycortisol and variable amounts of inhibitors.

Q: Which EC50 does the source give for `CCC(=O)N[C@H]1CCCc2c1cncc2N1C(=O)c2ccc(Cl)cc2[C@@H]1CC` (single isomer, unassigned) [Example 351, N-[(S or R)-4-((S or R)-5-Chloro-3-ethyl-1-oxo-1,3-dihydro-isoindol-2-yl)-5,6,7,8-tetrahydro-isoquinolin-8-yl]-propionamide] here?
A: 3660 nM

Q: Which EC50 does the source give for `C[C@@H]1Cc2cc(Cl)ccc2C(=O)N1c1cccnc1` [Example 91, (R)-6-Chloro-3-methyl-2-pyridin-3-yl-3,4-dihydro-2H-isoquinolin-1-one] here?
A: 395 nM

Q: `O=c1c2ccc(Cl)cc2ccn1-c1cncc(F)c1` [Example 54, 6-Chloro-2-(5-fluoro-pyridin-3-yl)-2H-isoquinolin-1-one] was tested. Which EC50 did it give?
A: 212 nM

Q: `CCS(=O)(=O)NC1CCc2c1cncc2N1Cc2cc(Cl)ccc2C1=O` (single isomer, unassigned) [Example 337, Ethanesulfonic acid [(S or R)-4-(5-chloro-1-oxo-1,3-dihydro-isoindol-2-yl)-6,7-dihydro-5H-[2]pyrindin-7-yl]-amide] was tested. Which EC50 did it give?
A: 24300 nM

Q: Which EC50 does the source give for `CCC(=O)Nc1cncc(N2CCc3cc(Cl)ccc3C2=O)c1` [Example 225, N-[5-(6-Chloro-1-oxo-3,4-dihydro-1H-isoquinolin-2-yl)-pyridin-3-yl]-propionamide] here?
A: 2550 nM

Q: Which EC50 does the source give for `CC(O)c1c(F)cncc1N1CCc2cc(Cl)ccc2C1=O` (stereo not drawn) [Example 62, 6-Chloro-2-[5-fluoro-4-(l-hydroxy-ethyl)-pyridin-3-yl]-3,4-dihydro-2H-isoquinolin-1-one] here?
A: 935 nM

Q: `CC(=O)NC1CCc2c1cncc2N1CCc2cc(Cl)ccc2C1=O` (single isomer, unassigned) [Example 332, N-[(R or S)-4-(6-Chloro-1-oxo-3,4-dihydro-1H-isoquinolin-2-yl)-6,7-dihydro-5H-[2]pyrindin-7-yl]-acetamide] was tested. Which EC50 did it give?
A: 14800 nM

Q: `O=C1c2ccc(Cl)cc2CCN1c1cncc(N2C(=O)CC[C@H]2CO)c1` [Example 50, 6-Chloro-2-[5-((S)-2-hydroxymethyl-5-oxo-pyrrolidin-1-yl)-pyridin-3-yl]-3,4-dihydro-2H-isoquinolin-1-one] was tested. Which EC50 did it give?
A: 1500 nM

Q: `CC(=O)NC1CCCc2c1cncc2N1CCc2cc(Cl)ccc2C1=O` (single isomer, unassigned) [Example 320, N-((R or S)-6-Chloro-1-oxo-3,4,5′,6′,7′,8′-hexahydro-1H-[2,4′]biisoquinolinyl-8′-yl)-acetamide] was tested. Which EC50 did it give?
A: 8030 nM

Q: How did the EC50 turn out when `CNC(=O)c1cncc(N2CCc3cc(Cl)ccc3C2=O)c1` [Example 43, 5-(6-Chloro-1-oxo-3,4-dihydro-1H-isoquinolin-2-yl)-N-methyl-nicotinamide] was run?
A: 372 nM

Q: For `CC1Cc2cc(Cl)ccc2C(=O)N1c1cncnc1` (stereo not shown) [Example 90, 6-Chloro-3-methyl-2-pyrimidin-5-yl-3,4-dihydro-2H-isoquinolin-1-one], which EC50 is on record?
A: 1230 nM

Q: Which EC50 does the source give for `CCS(=O)(=O)NCc1cncc(N2CCc3cc(Cl)ccc3C2=O)c1` [Example 25, Ethanesulfonic acid [5-(6-chloro-1-oxo-3,4-dihydro-1H-isoquinolin-2-yl)-pyridin-3-ylmethyl]-amide] here?
A: 401 nM

Q: `CN1CCN(Cc2ccncc2N2CCc3cc(Cl)ccc3C2=O)CC1` [Example 280, 6-Chloro-2-[4-(4-methyl-piperazin-1-ylmethyl)-pyridin-3-yl]-3,4-dihydro-2H-isoquinolin-1-one] was tested. Which EC50 did it give?
A: 1800 nM

Q: Which EC50 does the source give for `CN(C)C(=O)COc1cncc(N2CCc3cc(Cl)ccc3C2=O)c1` [Example 256, 2-[5-(6-Chloro-1-oxo-3,4-dihydro-1H-isoquinolin-2-yl)-pyridin-3-yloxy]-N,N-dimethyl-acetamide] here?
A: 774 nM

Q: With `CC1Cc2cc(Cl)ccc2C(=O)N1c1cccnc1` (stereo not shown) [Example 88, 6-Chloro-3-methyl-2-pyridin-3-yl-3,4-dihydro-2H-isoquinolin-1-one] as the molecule, how does the EC50 read?
A: 761 nM

Q: With `O=C(Nc1ccc(F)cc1)c1cncc(N2CCc3cc(Cl)ccc3C2=O)c1` [Example 45, 5-(6-Chloro-1-oxo-3,4-dihydro-1H-isoquinolin-2-yl)-N-(4-fluoro-phenyl)-nicotinamide] as the molecule, how does the EC50 read?
A: 295 nM

Q: `CCOc1ccc2c(n1)C(C)(C)N(c1cncc(CNc3cc[nH]n3)c1)C2=O` [Example 385, 2-Ethoxy-7,7-dimethyl-6-{5-[(1H-pyrazol-3-ylamino)-methyl]-pyridin-3-yl}-6,7-dihydro-pyrrolo[3,4-b]pyridin-5-one] was tested. Which EC50 did it give?
A: 893 nM

Q: `CS(=O)(=O)Nc1cncc(N2CCc3cc(Cl)ccc3C2=O)c1` [Example 220, N-[5-(6-Chloro-1-oxo-3,4-dihydro-1H-isoquinolin-2-yl)-pyridin-3-yl]-methanesulfonamide] was tested. Which EC50 did it give?
A: 1080 nM

Q: With `N#Cc1ccncc1N1CCc2cc(Cl)ccc2C1=O` [Example 74, 3-(6-Chloro-1-oxo-3,4-dihydro-1H-isoquinolin-2-yl)-isonicotinonitrile] as the molecule, how does the EC50 read?
A: 449 nM

Q: Which EC50 does the source give for `CCC(=O)NC1CCc2c1cncc2N1Cc2cc(Cl)ccc2C1=O` (single isomer, unassigned) [Example 338, N-[(S or R)-4-(5-Chloro-1-oxo-1,3-dihydro-isoindol-2-yl)-6,7-dihydro-5H-[2]pyrindin-7-yl]-propionamide] here?
A: > 30000 nM

Q: For `CS(=O)(=O)NC1CCc2c1cncc2N1CCc2cc(Cl)ccc2C1=O` (single isomer, unassigned) [Example 330, N-[(S or R)-4-(6-Chloro-1-oxo-3,4-dihydro-1H-isoquinolin-2-yl)-6,7-dihydro-5H-[2]pyrindin-7-yl]-methanesulfonamide], which EC50 is on record?
A: > 30000 nM

Q: With `CC(C)(Nc1cncc(N2CCc3cc(Cl)ccc3C2=O)c1)C(=O)O` [Example 227, 2-[5-(6-Chloro-1-oxo-3,4-dihydro-1H-isoquinolin-2-yl)-pyridin-3-ylamino]-2-methyl-propionic acid] as the molecule, how does the EC50 read?
A: 4210 nM

Q: With `CCC(=O)N[C@@H]1CCc2c1cncc2N1C(=O)c2ccc(Cl)cc2[C@@H]1C` (single isomer, unassigned) [Example 375, N-[(R or S)-4-((S or R)-5-Chloro-3-methyl-1-oxo-1,3-dihydro-isoindol-2-yl)-6,7-dihydro-5H-[2]pyrindin-7-yl]-propionamide] as the molecule, how does the EC50 read?
A: 5620 nM

Q: For `COc1ccc2c(c1)CCN(c1cccnc1)C2=O` [Example 94, 6-Methoxy-2-pyridin-3-yl-3,4 dihydro-2H-isoquinolin-1-one], which EC50 is on record?
A: 2060 nM

Q: How did the EC50 turn out when `CC1(C)CN(c2cccnc2)C(=O)c2ccc(Cl)cc21` [Example 102, 6-Chloro-4,4-dimethyl-2-pyridin-3-yl-3,4-dihydro-2H-isoquinolin-1-one] was run?
A: 1540 nM

Q: For `CC(=O)N[C@@H]1CCCc2c1cncc2N1C(=O)c2ccc(Cl)cc2[C@@H]1C1CC1` (single isomer, unassigned) [Example 374, N-[(R or S)-4-((S or R)-5-Chloro-3-cyclopropyl-1-oxo-1,3-dihydro-isoindol-2-yl)-5,6,7,8-tetrahydro-isoquinolin-8-yl]-acetamide], which EC50 is on record?
A: 354 nM

Q: For `Cn1cnnc1-c1cncc(N2CCc3cc(Cl)ccc3C2=O)c1` [Example 58, 6-Chloro-2-[5-(4-methyl-4H-[1,2,4]triazol-3-yl)-pyridin-3-yl]-3,4-dihydro-2H-isoquinolin-1-one], which EC50 is on record?
A: 2060 nM

Q: How did the EC50 turn out when `O=C1c2ccc(Cl)cc2CCN1c1cncnc1` [Example 51, 6-Chloro-2-pyrimidin-5-yl-3,4-dihydro-2H-isoquinolin-1-one] was run?
A: 2680 nM

From patent US9133158B2, “Bicyclic dihydroisoquinoline-1-one derivatives” (Hoffmann-La Roche Inc., priority 2011, dated 2015)
